Experimental data published in paper PMC10518010, “The leaderless communication peptide (LCP) class of quorum-sensing peptides is broadly distributed among Firmicutes” (Nature Communications, 2023).
Where a SMILES comes first, the peptide text is derived from it. The star is where a group is joined. FITC = O=C1OC2(c3ccc(O)cc3Oc3cc(O)ccc32)c2ccc(NC(=S)*)cc21

Assays:
[1] = target: FITC-labeled synthetic LCPss (S. salivarius); assay: fluorescence polarisation; purified RopBss titrated against FITC-labeled LCPss; 20 mM potassium phosphate pH 6.0, 75 mM NaCl, 2% DMSO, 1 mM EDTA, 0.0005% Tween 20
[2] = system: specific DNA/promoter sequences; conditions: peer review response; ref "our detailed published findings"; cited from earlier work
Text: page 13: not provide the desired explanation for the differences in the binding sites of both receptors. Consequently, we provided analyses and explanation in the previous version that is supported by the data and meaningful. - Regarding this point, it has recently been published that RopB-GAS might act as a repressor and not as a transcriptional activator (DOI: 10.26508/lsa.202201809), as the authors show for RopBss. Could this fact explain the differences in their binding sites? Perhaps this point would be interesting to discuss in the manuscript. RESPONSE: We are aware of this study. Howeve ...

[3] = system: secreted cysteine protease SpeB; conditions: S. pyogenes; cited from earlier work
Text: (§1) Recently, we discovered a new class of leaderless communication peptide (LCP) in human pathogen Streptococcus pyogenes that controls bacterial virulence (Fig. 1a)[10]. Contrary to characterized bacterial peptide signals, the LCP, known as SpeB-inducing peptide (SIP), is synthesized from a 24 base pair ultrasmall open reading frame (usORF) encoding a mature 8 amino acid peptide without the amino acid sequences required for secretion and processing. Consistent with the lack of hallmarks of bacterial peptide signals, the canonical machineries required for the export and import of qs peptides ...

RopB = conditions: S. pyogenes; cited from earlier work
Text: as §1

[4] = system: bacterial virulence in animal models of infection; conditions: cited from earlier work
Text: as §1

WT S. salivarius = conditions: 30 min, fluorescence and microscopy
Text: Cells were harvested by centrifugation, and washed three times with sterile PBS. Cells were fixed on the coverslip using 1% glutaraldehyde and 3% formaldehyde. The images were taken using a Nikon Eclipse TiN-STORM super resolution microscope equipped with iXon3 897 EM-CCD camera.

RopBss (RopB homolog, cytosolic LCP receptor of Streptococcus salivarius)
Kd [1]: 8 nM

MWLLLLFL [SIP, SpeB-inducing peptide of Streptococcus pyogenes, mature 8 amino acid peptide]
RopB binding to promoter sequences in the presence of SIP (in words) [2]: with high affinity only in the presence of SIP | SpeB regulation (in words) [3]: upregulation of an adjacently located virulence factor, a secreted cysteine protease SpeB | Binding to RopB (in words) (RopB): binds to a RRNPPA-family transcription activator, Regulator of Protease B (RopB) | Bacterial virulence (in words) [4]: increased bacterial virulence in animal models of infection

CC[C@H](C)[C@H](NC(=O)[C@H](CC(C)C)NC(=O)[C@H](Cc1c[nH]c2ccccc12)NC(=O)[C@H](CCSC)NC(=S)Nc1ccc2c(c1)C(=O)OC21c2ccc(O)cc2Oc2cc(O)ccc21)C(=O)N[C@@H](CC(C)C)C(=O)N[C@@H](CC(C)C)C(=O)N[C@@H](Cc1ccccc1)C(=O)N[C@@H](CC(C)C)C(=O)O [FITC-LCPss] ({FITC}-MWLILLFL-OH)
Internalization of exogenously added peptide (in words) (WT S. salivarius): internalization of the exogenously added FITC-labeled synthetic LCPss
